Results published in publication PMC8294059, “Identification and Immune Assessment of T Cell Epitopes in Five Plasmodium falciparum Blood Stage Antigens to Facilitate Vaccine Candidate Selection and Optimization” (Frontiers in Immunology, 2021).
Where a SMILES comes first, the peptide text is derived from it.

Molecular target: HLA-A*0301 (Homo sapiens, UniProt P04439)
Test: biochemical
Format: binding
Conditions: allele A*0301; fluorescence polarization competition
Method in brief: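 Cell-free competition assay: HLA heat-treated 53°C for 15 min to strip endogenous peptides, then mixed with fluorescent high-affinity control peptide and test peptides for 72 h to equilibrium. Displacement read by fluorescence polarization as percent inhibition; IC50 derived from a concentration range.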

Compound	IC50 (nM), in vitro HLA binding affinity
DLMNRTFKK [RH5_294]	Non-Binder
LSVKSKNLNK [RH5_369]	Non-Binder
NVNFLQYHFK [RH5_141]	Non-Binder
PSHNSFIKK [RH5_101]	Non-Binder

Same assay, conditions: allele A*0301; fluorescence polarization competition; read-out: IC50 (nM), in vitro HLA binding affinity

Compound	IC50 [nM]
CC[C@H](C)[C@H](NC(=O)[C@H](CC(=O)O)NC(=O)[C@H](CC(N)=O)NC(=O)[C@H](CS)NC(=O)[C@H](CCCCN)NC(=O)[C@H](CO)NC(=O)[C@H](CCCCN)NC(=O)[C@@H](NC(=O)[C@@H](N)CCCCN)C(C)C)C(=O)N[C@@H](CCCCN)C(=O)O [RH5_219] (H-KVKSKCNDIK-OH)	39300
CC(C)C[C@H](NC(=O)[C@H](CC(N)=O)NC(=O)[C@@H](NC(=O)[C@H](CC(C)C)NC(=O)[C@H](CC(C)C)NC(=O)[C@@H](N)CC(C)C)[C@@H](C)O)C(=O)N[C@@H](CC(N)=O)C(=O)N[C@@H](CCCCN)C(=O)N[C@@H](CCCCN)C(=O)O [RH5_392] (H-LLLTNLNKK-OH)	14100
CC[C@H](C)[C@H](NC(=O)[C@H](Cc1ccc(O)cc1)NC(=O)[C@@H](NC(=O)[C@H](Cc1ccc(O)cc1)NC(=O)[C@H](CO)NC(=O)CN)[C@@H](C)CC)C(=O)N[C@@H](CC(=O)O)C(=O)N[C@H](C(=O)N[C@H](C(=O)N[C@@H](CCCCN)C(=O)O)[C@@H](C)CC)[C@@H](C)O [RH5_402] (H-GSYIYIDTIK-OH)	70800
CC[C@H](C)[C@H](NC(=O)[C@H](CCCCN)NC(=O)[C@@H](NC(=O)[C@@H](N)Cc1c[nH]cn1)[C@@H](C)O)C(=O)N[C@H](C(=O)N[C@@H](CC(N)=O)C(=O)N[C@@H](CC(=O)O)C(=O)N[C@@H](CCCCN)C(=O)N[C@H](C(=O)N[C@@H](CCCCN)C(=O)O)[C@@H](C)O)[C@@H](C)CC [RH5_427] (H-HTKIINDKTK-OH)	73000
CC[C@H](C)[C@H](NC(=O)[C@H](CC(N)=O)NC(=O)[C@H](CC(C)C)NC(=O)[C@@H](N)CCCCN)C(=O)N[C@@H](Cc1c[nH]c2ccccc12)C(=O)N[C@@H](CCCNC(=N)N)C(=O)N[C@H](C(=O)N[C@@H](Cc1ccccc1)C(=O)N[C@@H](CCC(N)=O)C(=O)N[C@@H](CCCCN)C(=O)O)[C@@H](C)O [RH5_443] (H-KLNIWRTFQK-OH)	2500
CC(C)C[C@H](NC(=O)[C@H](CC(C)C)NC(=O)[C@H](CCC(=O)O)NC(=O)[C@H](CC(=O)O)NC(=O)[C@H](CCCCN)NC(=O)[C@H](CCC(N)=O)NC(=O)[C@H](Cc1ccccc1)NC(=O)[C@@H](NC(=O)[C@@H](N)CCCNC(=N)N)[C@@H](C)O)C(=O)N[C@@H](CCCCN)C(=O)O [RH5_448] (H-RTFQKDELLK-OH)	24200
C[C@H](N)C(=O)N[C@H](C(=O)N[C@@H](CS)C(=O)N[C@@H](CCCCN)C(=O)N[C@@H](Cc1ccc(O)cc1)C(=O)NCC(=O)N[C@@H](Cc1ccccc1)C(=O)N[C@@H](CC(N)=O)C(=O)N[C@@H](CCCCN)C(=O)O)[C@@H](C)O [RIPR_0266] (H-ATCKYGFNK-OH)	4750
CC(C)C[C@H](NC(=O)[C@H](CO)NC(=O)[C@H](CCC(=O)O)NC(=O)[C@@H](NC(=O)[C@@H](NC(=O)[C@H](Cc1ccc(O)cc1)NC(=O)[C@H](CCCCN)NC(=O)[C@H](CC(C)C)NC(=O)[C@@H](N)CCCCN)C(C)C)[C@@H](C)O)C(=O)N[C@@H](CCCCN)C(=O)O [RIPR_0425] (H-KLKYVTESLK-OH)	3340
CC[C@H](C)[C@H](NC(=O)[C@H](CC(=O)O)NC(=O)[C@@H]1CCCN1C(=O)[C@H](CC(C)C)NC(=O)[C@@H](NC(=O)[C@@H](N)CO)[C@@H](C)CC)C(=O)N[C@@H](CC(N)=O)C(=O)N[C@@H](CCCCN)C(=O)N[C@@H](CO)C(=O)N[C@@H](CCCCN)C(=O)O [RIPR_0500] (H-SILPDINKSK-OH)	12700
CC(C)[C@H](NC(=O)[C@@H](N)CS)C(=O)N[C@@H](CS)C(=O)N[C@H](C(=O)N[C@@H](Cc1ccc(O)cc1)C(=O)N[C@@H](CC(N)=O)C(=O)N[C@@H](Cc1ccc(O)cc1)C(=O)N[C@@H](Cc1ccc(O)cc1)C(=O)N[C@@H](CCCCN)C(=O)N[C@@H](CCCCN)C(=O)O)[C@@H](C)O [RIPR_0924] (H-CVCTYNYYKK-OH)	14400
